Measured values as given in EPA's ToxRefDB 2.

Assays:
[1] = test system: rat; details: Prenatal developmental toxicity study, other, Oral, Gavage/Intubation, dose end: 16 GD
[2] = test system: mouse; details: Combined chronic toxicity/carcinogenicity; cd1; Oral; Feed; dose end: 104 week; group: systemic; systemic / in life observation / body weight / body weight gain + systemic / in life observation / clinical signs / lacrimation + systemic…
[3] = test system: dog; details: Chronic toxicity, beagle, Oral, Feed, dose end: 52 week, group: systemic
[4] = test system: rabbit; details: Prenatal developmental toxicity study, new zealand white, Oral, Gavage/Intubation, dose end: 19 GD
[5] = test system: mouse; details: Prenatal developmental toxicity study, other, Oral, Gavage/Intubation, dose end: 15 GD
[6] = test system: rat; details: Combined chronic toxicity/carcinogenicity, sprague dawley, Oral, Feed, dose end: 104 week, group: systemic
[7] = test system: rat; details: Multigenerational reproductive toxicity study, sprague dawley, Oral, Feed, dose end: 2 generation
[8] = group: developmental, developmental / developmental malformation / bone / incomplete ossification + developmental / developmental malformation / bone / manus …
[9] = group: maternal, systemic / in life observation / body weight / body weight gain + systemic / in life observation / food consumption / food consumption
[10] = group: maternal, systemic / in life observation / body weight / body weight gain + systemic / in life observation / food consumption / food consumption + …
[11] = group: maternal, systemic / in life observation / food consumption / food consumption
[12] = systemic / pathology microscopic / eye / opacity + systemic / organ weight / kidney / absolute + systemic / organ weight / kidney / relative…
[13] = group: developmental, developmental / developmental malformation / bone / incomplete ossification
[14] = group: developmental, developmental / developmental malformation / bone / incomplete ossification + developmental / developmental malformation / bone / full …
[15] = group: developmental, developmental / developmental malformation / bone / [other] + developmental / developmental malformation / eye / open eye + developmental / …
[16] = group: developmental, developmental / developmental malformation / bone / [other] + developmental / developmental malformation / heart / defect a-v septum + …
[17] = group: maternal, systemic / in life observation / clinical signs / abnormal posture + systemic / in life observation / clinical signs / drooping eyelids (…
[18] = group: maternal, systemic / in life observation / clinical signs / piloerection + systemic / in life observation / clinical signs / respiration (rales) + …
[19] = systemic / pathology microscopic / eye / opacity
[20] = group: offspring, systemic / in life observation / body weight / offspring (pup) weight gain + developmental / offspring survival late / [other] / [other]
[21] = group: offspring, systemic / in life observation / body weight / offspring (pup) weight gain + developmental / offspring survival late / [other] / [other] + …
[22] = group: parental, systemic / pathology microscopic / eye / cataract + systemic / in life observation / body weight / body weight gain + systemic / in life …
[23] = group: parental, systemic / pathology microscopic / eye / cataract + systemic / in life observation / clinical signs / tongue ulcers

SMILES: [Br-].[Br-].c1cc[n+]2c(c1)-c1cccc[n+]1CC2 [Diquat dibromide]
- LEL [1, 8]: 40 mg/kg/day
- LOAEL [1, 8]: 40 mg/kg/day
- NEL [1, 8]: 12 mg/kg/day
- NOAEL [1, 8]: 12 mg/kg/day
- LOAEL [1, 9]: 12 mg/kg/day
- NOAEL [1, 10]: 4 mg/kg/day
- LEL [1, 11]: 4 mg/kg/day
- NEL [1, 11]: < 4 mg/kg/day
- LEL [2]: 12 mg/kg/day
- LOAEL [2]: 12 mg/kg/day
- NEL [2]: 3.56 mg/kg/day
- NOAEL [2]: 3.56 mg/kg/day
- LOAEL ([3]; systemic / pathology microscopic / eye / opacity + systemic / organ weight / epididymis / relative to body weight): 2.5 mg/kg/day
- LEL ([3]; systemic / pathology microscopic / eye / opacity + systemic / organ weight / epididymis / relative to body weight + systemic / pathology …): 2.5 mg/kg/day
- NEL [3, 12]: 0.5 mg/kg/day
- NOAEL [3, 12]: 0.5 mg/kg/day
- LEL [4, 13]: 1 mg/kg/day
- NEL [4, 13]: < 1 mg/kg/day
- LOAEL [4, 14]: 10 mg/kg/day
- NOAEL [4, 14]: 3 mg/kg/day
- LEL [4, 9]: 3 mg/kg/day
- LOAEL [4, 9]: 3 mg/kg/day
- NEL [4, 10]: 1 mg/kg/day
- NOAEL [4, 10]: 1 mg/kg/day
- LOAEL [5, 15]: 2 mg/kg/day
- NOAEL [5, 15]: 1 mg/kg/day
- LEL [5, 16]: 1 mg/kg/day
- NEL [5, 16]: < 1 mg/kg/day
- LOAEL [5, 17]: 2 mg/kg/day
- NOAEL [5, 17]: 1 mg/kg/day
- LEL [5, 18]: 1 mg/kg/day
- NEL [5, 18]: < 1 mg/kg/day
- LOAEL ([6]; systemic / pathology microscopic / eye / cataract): 0.58 mg/kg/day
- NOAEL ([6]; systemic / pathology microscopic / eye / cataract + systemic / in life observation / body weight / body weight gain + systemic / pathology …): 0.19 mg/kg/day
- LEL [6, 19]: 0.24 mg/kg/day
- NEL [6, 19]: < 0.24 mg/kg/day
- NEL [7, 20]: 4 mg/kg/day
- NOAEL [7, 20]: 4 mg/kg/day
- LEL [7, 21]: 12 mg/kg/day
- LOAEL [7, 21]: 12 mg/kg/day
- NEL [7, 22]: 0.8 mg/kg/day
- NOAEL [7, 22]: 0.8 mg/kg/day
- LEL [7, 23]: 4 mg/kg/day
- LOAEL [7, 23]: 4 mg/kg/day
